Laboratory results published in paper PMC7614683, “A small molecule PI3Kα activator for cardioprotection and neuroregeneration” (Nature, 2023).
Like-named read-outs stand apart in the source and are kept apart here.

Key:
[1] = tested on: PI3Kα-KO MEFs transiently transfected with PIK3CA constructs; experiment: pAKT S473 in PI3Kα-KO MEFs transfected with p110α-WT or p110α-mutants; type: cell-based, mouse; settings: 1938 5 μM
Description: Flag-PIK3R1 (a kind gift of Neil Vasan), PIK3CA-WT and mutant PIK3CA (D603K, L1006R, F1016S and L1006R/F1016S) were cloned into pcDNA3.4TOPO. pcDNA3-eGFP was used as a control for transfection efficiency and is available on Addgene repository upon request (Plasmid #13031). The mutations in PIK3CA were introduced by site-directed mutagenesis according to published commercial protocols using NEBuilder HiFi DNA Assembly Master Mix (NEB E2621). For each mutation, a pair of primers were designed to incorporate a mutation within the gene, with the resulting PCR products containing a 20 bp overlap and the desired mutations. The DpnI-treated and purified PCR products were combined with the linearized vector and treated with the NEBuilder HiFi DNA Assembly Master Mix. Following transformation, single colonies were grown and purified with QIAprep spin Miniprep kit (Qiagen 27106). All plasmids were sequenced for verification.
eGFP, Flag-PIK3R1, PIK3CA-WT and mutant PIK3CA (D603K, L1006R, F1016S, L1006R/F1016S) plasmids were used for transient transfection. Pik3ca-KO MEFs cells were seeded at 70-80% confluency in 6-well plate at 100,000 cells per well. […]

[2] = target: protein kinases of the Z-LYTE panel (Homo sapiens, UniProt P07949, V804L); experiment: SelectScreen Z-LYTE kinase activity assay (SI Table 6); type: biochemical
Sequence of protein kinases of the Z-LYTE panel (P07949 29-1114 V804L): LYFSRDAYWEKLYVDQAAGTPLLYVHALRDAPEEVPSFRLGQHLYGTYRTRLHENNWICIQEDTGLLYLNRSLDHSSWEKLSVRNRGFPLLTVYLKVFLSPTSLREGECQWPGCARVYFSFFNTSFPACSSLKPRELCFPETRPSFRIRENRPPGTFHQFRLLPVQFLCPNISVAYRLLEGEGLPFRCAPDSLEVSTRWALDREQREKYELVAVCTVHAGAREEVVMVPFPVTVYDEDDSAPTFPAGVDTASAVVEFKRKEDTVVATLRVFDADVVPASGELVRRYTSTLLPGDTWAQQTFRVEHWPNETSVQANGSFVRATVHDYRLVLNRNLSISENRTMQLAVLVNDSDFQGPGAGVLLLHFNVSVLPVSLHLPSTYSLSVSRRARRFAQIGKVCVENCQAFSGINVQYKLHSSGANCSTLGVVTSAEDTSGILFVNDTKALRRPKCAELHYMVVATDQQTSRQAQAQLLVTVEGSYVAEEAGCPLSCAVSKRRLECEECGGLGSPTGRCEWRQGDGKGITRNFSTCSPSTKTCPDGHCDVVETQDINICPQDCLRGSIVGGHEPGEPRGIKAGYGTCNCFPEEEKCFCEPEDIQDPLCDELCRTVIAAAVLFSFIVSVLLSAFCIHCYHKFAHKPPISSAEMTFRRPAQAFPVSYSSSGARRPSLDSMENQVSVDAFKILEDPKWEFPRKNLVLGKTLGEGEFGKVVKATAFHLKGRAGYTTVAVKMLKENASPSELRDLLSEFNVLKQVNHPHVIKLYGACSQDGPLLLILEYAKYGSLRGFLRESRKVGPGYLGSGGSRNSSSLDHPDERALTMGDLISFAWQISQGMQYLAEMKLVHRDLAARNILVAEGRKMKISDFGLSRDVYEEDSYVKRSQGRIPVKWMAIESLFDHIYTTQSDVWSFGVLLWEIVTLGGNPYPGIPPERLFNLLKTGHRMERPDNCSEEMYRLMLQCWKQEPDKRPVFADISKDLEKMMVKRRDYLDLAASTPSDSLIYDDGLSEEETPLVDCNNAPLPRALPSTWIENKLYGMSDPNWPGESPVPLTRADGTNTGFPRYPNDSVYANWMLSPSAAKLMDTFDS
Summary of the method: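 Compound 1938 counterscreened at 1 μM against 133 protein and 7 lipid kinases in the SelectScreen panel, using Adapta, LanthaScreen binding and Z-LYTE formats as applicable.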

With `CCN1CCN(c2ccc(Nc3cc(Nc4cccc5c4N(C(C)=O)CC5)ccn3)cc2)CC1` [Compound 1938] as the molecule, how does the “pAKT^S473 stimulation after expression of WT PI3Kα” value [1] read?
The value was “restored 1938-mediated pAKT^S473 stimulation”.

And the “pAKT^S473 induction after expression of 1938-resistant p110α-mutants” value ([1]; D603K, L1006R, F1016S, L1006R/F1016S)?
Its value is “none of the p110α-mutants resistant to 1938-activation in in vitro kinase assays showed a response”.

And the inhibition at 1 µM ([2]; read-out: % Inhibition Point 1)?
Its inhibition at 1 µM is 11%.

And the inhibition at 1 µM ([2]; read-out: % Inhibition Point 2)?
Its inhibition at 1 µM is 11%.

What about the inhibition at 1 µM ([2]; read-out: % Inhibition mean) of the same molecule?
Its inhibition at 1 µM is 11%.
